Data as given in patent EP0291321A2, “Element and method for determination of creatinine or creatine” (EASTMAN KODAK COMPANY (a New Jersey corporation), priority 1987, dated 1988).

Target: T1, sarcosine oxidase (Bacillus sp., UniProt P40859)
T1 sequence (P40859 1-390): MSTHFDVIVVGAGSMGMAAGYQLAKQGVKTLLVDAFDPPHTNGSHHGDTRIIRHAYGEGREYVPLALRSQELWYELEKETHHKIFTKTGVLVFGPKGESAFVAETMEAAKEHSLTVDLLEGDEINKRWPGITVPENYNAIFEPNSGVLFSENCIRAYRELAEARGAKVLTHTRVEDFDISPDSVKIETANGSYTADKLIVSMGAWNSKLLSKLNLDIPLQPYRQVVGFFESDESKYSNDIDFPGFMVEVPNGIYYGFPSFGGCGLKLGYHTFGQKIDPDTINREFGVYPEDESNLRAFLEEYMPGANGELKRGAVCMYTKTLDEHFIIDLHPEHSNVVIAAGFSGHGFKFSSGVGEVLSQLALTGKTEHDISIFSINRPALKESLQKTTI
Test: sarcosine oxidase activity on substrate at various pH (rate of change in absorbance per minute)
Type: biochemical
Details: for Ratio (B/A): rate with N-ethyl glycine divided by rate with sarcosine
Experimental: Separate assays at various pH were conducted to determine the rate of change in absorbance per minute (ΔA/min) for sarcosine oxidase activity on its substrate sarcosine, and on N-ethyl glycine. The assay is based on the following reactions. [drawing 1]

Structure (SMILES) | rate of change in absorbance per minute (ΔA/min) for sarcosine oxidase activity (pH 6.5) | Ratio (B/A) (pH 6.5) | rate of change in absorbance per minute (ΔA/min) for sarcosine oxidase activity (pH 7.0) | Ratio (B/A) (pH 7.0) | rate of change in absorbance per minute (ΔA/min) for sarcosine oxidase activity (pH 7.5) | Ratio (B/A) (pH 7.5)
CCNCC(=O)O [N-Ethyl Glycine, N-ethyl glycine] | 0.017 ΔA/min | 0.011 | 0.053 ΔA/min | 0.024 | 0.134 ΔA/min | 0.048
CNCC(=O)O [Sarcosine, sarcosine] | 1.56 ΔA/min | – | 2.20 ΔA/min | – | 2.76 ΔA/min | –
